Data published in PubChem BioAssay (NCI).
Where “and” joins values, the source holds several entries; their conditions need not be identical. Identical values can stand only once.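 How tested: cells in 96-well plates exposed to compound for 48 hours at five concentrations. GI50 = concentration required for 50% inhibition of growth. TGI is the concentration that stops growth completely.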

Legend:
Assay in all cases: NCI anticancer screen, dose series, 48 h
[1] = test system: A549 NSCLC
[2] = test system: CCRF-CEM leukemia
[3] = test system: HCC-2998 colon
[4] = test system: HL-60(TB) leukemia
[5] = test system: HOP-92 NSCLC
[6] = test system: IGROV1 ovarian
[7] = test system: SK-MEL-2 melanoma
[8] = test system: SK-MEL-5 melanoma
[9] = test system: UACC-257 melanoma
[10] = test system: UO-31 renal

Row | SMILES | GI50 [1] | TGI [1] | GI50 [2] | TGI [2] | GI50 [3] | TGI [3] | GI50 [4] | TGI [4] | GI50 [5] | TGI [5] | GI50 [6] | TGI [6] | GI50 [7] | TGI [7] | GI50 [8] | TGI [8] | GI50 [9] | TGI [9] | GI50 [10] | TGI [10]
1 | CN[C@@H](C)C(=O)N[C@H](C(=O)N1CCC[C@H]1C(=O)Nc1snnc1-c1ccccc1)C1CCCCC1 | 71.6 µM | > 100 µM | 32.3 µM | > 100 µM | 25.6 µM | 60.8 µM | 21.7 µM | 48.1 µM | 3.06 µM | 27.7 µM | 76.9 µM | > 100 µM | 27.4 µM | > 63.9 µM | 16.7 µM | 33.9 µM | 0.405 µM | 25.5 µM | 97.4 µM | > 100 µM
2 | C=C(C)C(=O)Nc1ccc(NC(C)C)cc1 | > 100 µM | > 100 µM | > 100 µM | > 100 µM | > 100 µM | > 100 µM | > 100 µM | > 100 µM | > 100 µM | > 100 µM | > 100 µM | > 100 µM | > 100 µM | > 100 µM | > 100 µM | > 100 µM | > 100 µM | > 100 µM | > 100 µM | > 100 µM
3 | O=[N+]([O-])O.[Cu+2].[NH-]CC[NH-].[NH-]CC[NH-] | > 10 µM | > 10 µM | > 10 µM | > 10 µM | > 10 µM | > 10 µM | > 10 µM | > 10 µM | > 10 µM | > 10 µM | > 10 µM | > 10 µM | > 10 µM | > 10 µM | > 10 µM | > 10 µM | > 10 µM | > 10 µM | > 10 µM | > 10 µM
4 | CC1CCC(NC(=O)N(CCCl)N=O)CC1 (stereo not drawn) | 23.6 µM | 56.5 µM and 149 µM | 8.11 µM | 30.3 µM and 55.8 µM | – | 93.9 µM | 8.98 µM | 24.1 µM and 72.2 µM | – | 64.2 µM and 68.8 µM | 22.6 µM | 80.7 µM and 89 µM | 20.4 µM | 48.1 µM and 91.2 µM | 29.8 µM | > 87.5 µM | 33.5 µM | 89.8 µM | 61.2 µM | 92 µM
5 | CC(C)(C)OC(=O)N1CCN(CCn2cc(C(F)(F)F)c3c(Cl)ncnc32)CC1 | 19.3 µM | 35.6 µM | 2.85 µM | 9.19 µM | 2.05 µM | 4.53 µM | 2.43 µM | 6.46 µM | 3.12 µM | 10.9 µM | 1.84 µM | 3.74 µM | 1.93 µM | 3.9 µM | 4.19 µM | 14.5 µM | 3.31 µM | 10.4 µM | 11.6 µM | 24.4 µM
6 | O=C1Nc2ccccc2/C1=C/C(=O)c1coc2c1C(=O)c1ccccc1C2=O | > 100 µM | > 100 µM | > 100 µM | > 100 µM | > 100 µM | > 100 µM | > 100 µM | > 100 µM | 59.7 µM | > 100 µM | > 100 µM | > 100 µM | > 100 µM | > 100 µM | 30.4 µM | > 100 µM | > 100 µM | > 100 µM | 70.4 µM | > 100 µM
7 | N#CC(NC12CC3CC(CC(C3)C1)C2)c1ccc2c(c1)OCO2 (stereo not drawn) | – | > 100 µM | – | > 100 µM | – | > 100 µM | – | > 100 µM | – | > 100 µM | – | > 100 µM | – | > 100 µM | – | > 100 µM | – | > 100 µM | – | > 100 µM
8 | c1ccc2[nH]c(-c3ccc(-c4nccc5c4[nH]c4ccccc45)cc3)nc2c1 | 4.15 µM | 18.6 µM | 3.12 µM | 9.12 µM | 3.96 µM | 15.9 µM | 2.03 µM | 4.59 µM | 2.06 µM | 5.79 µM | 4.73 µM | 22.4 µM | 1.99 µM | 4.34 µM | 3.69 µM | 14.3 µM | 1.83 µM | 3.5 µM | 1.69 µM | 3.27 µM
9 | Cn1cc(C(=O)NCCC(=N)N)cc1NC(=O)C1=[N+](C)C=C(NC(=O)c2cccc(C(=O)NC3=CC(C(=O)Nc4cc(C(=O)NCCC(=N)N)cn4C)=[N+](C)C3)c2)C1 | – | > 100 µM | – | > 100 µM | – | > 100 µM | – | > 100 µM | – | > 100 µM | – | > 100 µM | – | > 100 µM | – | > 100 µM | – | > 100 µM | – | > 100 µM
10 | C=C(C)C(=O)O[C@H]1CC(=C)[C@@H]2C[C@H](O)[C@](O)(CCl)[C@@H]2[C@H]2OC(=O)C(=C)[C@@H]21 | 18.4 µM | 38.2 µM | 1.57 µM | 3.71 µM | 17.6 µM | 32.4 µM | 1.97 µM | 4.19 µM | 2.69 µM | 6.33 µM | 2.71 µM | 10.4 µM | 6.59 µM | 22 µM | 8.66 µM | 23.4 µM | 3.65 µM | 13.5 µM | 2.73 µM | 9.27 µM
11 | Cc1nn2c(/C=C3\C(=O)Nc4ccc(Cl)cc43)c(C)nc2s1 | 93.9 µM | > 100 µM | 21.1 µM | > 100 µM | 26.2 µM | > 100 µM | 13.5 µM | 43.4 µM | > 100 µM | > 100 µM | 23.7 µM | > 100 µM | 22.2 µM | 82.4 µM | 10.1 µM | > 100 µM | > 100 µM | > 100 µM | 34.6 µM | > 100 µM
12 | Nc1c(C(=O)c2cccc(-c3ccncc3)c2)cnn1-c1ccc(F)cc1F | 6.01 µM | > 25 µM | 17 µM | > 25 µM | > 21.3 µM | > 25 µM | 5.57 µM | > 25 µM | 4.71 µM | > 22.9 µM | 9.98 µM | > 25 µM | 6.43 µM | > 19.7 µM | 1.68 µM | 8.49 µM | 9.47 µM | > 25 µM | 8.96 µM | > 25 µM
13 | Oc1ccccc1/C=C/c1csnn1 | – | > 100 µM | – | > 100 µM | – | > 100 µM | – | 99.7 µM | – | > 100 µM | – | > 100 µM | – | > 100 µM | – | > 100 µM | – | > 100 µM | – | > 100 µM
